# Results taken from patent US8163771B2, “11 β-HSD1 modulators” (Exelixis, Inc., priority 2008, dated 2012).
# Target: T1, recombinant human 11 β-HSD1 (Homo sapiens, UniProt P28845)
# T1 construct: made in house; host or cells: E. coli
# Test: 11 β-HSD1 SPA Assay (Scintillation Proximity Assay)
# Assay type: biochemical
# Outline: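 E. coli-expressed human enzyme (30-100 nM) with tritiated cortisone 40 nM and NADPH 1 mM in HEPES buffer pH7.4, 2 hours at room temperature. Stopped with protein A SPA beads carrying anti-cortisol antibody and glycyrrhetinic acid; counted after overnight incubation. IC50 from percent inhibition between no-enzyme and no-compound signals.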
# T1 sequence (P28845 whole entry): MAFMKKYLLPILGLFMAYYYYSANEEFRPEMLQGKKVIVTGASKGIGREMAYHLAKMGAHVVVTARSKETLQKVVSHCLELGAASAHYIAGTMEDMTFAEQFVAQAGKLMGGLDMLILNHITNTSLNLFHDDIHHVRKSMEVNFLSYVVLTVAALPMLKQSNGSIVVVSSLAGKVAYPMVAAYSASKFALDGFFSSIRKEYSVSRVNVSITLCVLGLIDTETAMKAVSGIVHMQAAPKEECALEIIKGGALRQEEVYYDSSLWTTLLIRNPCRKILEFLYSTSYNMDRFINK
row,Compound,IC50
1,CC(C)(Oc1ccc(C(F)(F)F)cn1)C(=O)N[C@H]1C[C@H]2CC[C@@H](C1)N2c1ccc(C(N)=O)cn1 [Example 150],< 200 nM
2,"CC(C)(Oc1ccc(Cl)cc1OC(F)(F)F)C(=O)N[C@H]1C[C@H]2CC[C@@H](C1)N2c1ccc(C(=O)NCC(F)F)cn1 [Example 401, 6-(3-endo-(2-(4-chloro-2-(trifluoromethoxy)phenoxy)-2-methylpropanamido)-8-azabicyclo[3.2.1]octan-8-yl)-N-(2,2-difluoroethyl)nicotinamide]",< 200 nM
3,"CC(C)NC(=O)c1ccc(N2[C@@H]3CC[C@H]2C[C@@H](NC(=O)C(C)(C)Oc2ccc(F)cc2Cl)C3)nc1 [Example 70, 6-[3-endo-({2-[(2-chloro-4-fluorophenyl)oxy]-2-methylpropanoyl}amino)-8-azabicyclo[3.2.1]oct-8-yl]-N-(1-methylethyl)pyridine-3-carboxamide]",< 200 nM
4,"CC(C)(Oc1ccc(Cl)cc1Cl)C(=O)N[C@H]1C[C@H]2CC[C@@H](C1)N2c1ccc(C(=O)NCCN2CCOCC2)cn1 [Example 362, 6-(3-endo-{[2-(2,4-dichlorophenoxy)-2-methylpropanoyl]amino}-8-azabicyclo[3.2.1]oct-8-yl)-N-[2-(morpholin-4-yl)ethyl]pyridine-3-carboxamide]",< 200 nM
5,"CC(C)(Oc1ccccc1C(F)(F)F)C(=O)N[C@H]1C[C@H]2CC[C@@H](C1)N2c1ccc(C(=O)NCC(F)(F)F)cn1 [Example 112, 6-{3-endo-[(2-methyl-2-{[2-(trifluoromethyl)phenyl]oxy}propanoyl)amino]-8-azabicyclo[3.2.1]oct-8-yl}-N-(2,2,2-trifluoroethyl)pyridine-3-carboxamide]",< 200 nM
6,"CC(C)(Oc1ccc(Cl)cc1Cl)C(=O)N[C@H]1C[C@H]2CC[C@@H](C1)N2c1ccc(NC(=O)NCC(F)(F)F)cc1Cl [Example 136, N-{8-[2-chloro-4-({[(2,2,2-trifluoroethyl)amino]carbonyl}amino)phenyl]-8-azabicyclo[3.2.1]oct-3-endo-yl}-2-[(2,4-dichlorophenyl)oxy]-2-methylpropanamide]",< 2000 nM
7,"CC(C)(Oc1ncc(Cl)cc1F)C(=O)N[C@H]1C[C@H]2CC[C@@H](C1)N2c1ccc(S(C)(=O)=O)cc1 [Example 195, 2-[(5-chloro-3-fluoropyridin-2-yl)oxy]-2-methyl-N-{8-[4-(methylsulfonyl)phenyl]-8-azabicyclo[3.2.1]oct-3-endo-yl}propanamide]",< 2000 nM
8,"O=C(NC1CC1)c1ccc(N2[C@@H]3CC[C@H]2C[C@@H](NC(=O)C2(c4ccc(Cl)cc4)CC2)C3)cc1Cl [Example 63, 2-chloro-4-[3-endo-({[1-(4-chlorophenyl)cyclopropyl]carbonyl}amino)-8-azabicyclo[3.2.1]oct-8-yl]-N-cyclopropylbenzamide]",< 200 nM
9,"CC(C)(Oc1ccc(F)cc1)C(=O)N[C@H]1C[C@H]2CC[C@@H](C1)N2c1ccc(S(C)(=O)=O)cc1 [Example 233, 2-[(4-fluorophenyl)oxy]-2-methyl-N-{8-[4-(methylsulfonyl)phenyl]-8-azabicyclo[3.2.1]oct-3-endo-yl}propanamide]",< 2000 nM
10,"C[C@H](NC(=O)c1ccc(N2C3CCC2CC(NC(=O)C(C)(C)Oc2ccc(Cl)cc2S(C)(=O)=O)C3)nc1)C(F)(F)F (stereo partly drawn) [Example 432, 6-[3-endo-({2-[4-chloro-2-(methylsulfonyl)phenoxy]-2-methylpropanoyl}amino)-8-azabicyclo[3.2.1]oct-8-yl]-N-[(2S)-1,1,1-trifluoropropan-2-yl]pyridine-3-carboxamide]",< 2000 nM
11,"CC(C)(Oc1ccc(Cl)cc1Cl)C(=O)N[C@H]1C[C@H]2CC[C@@H](C1)N2c1ccc(C(=O)NCC(F)F)cn1 [Example 355, 6-(3-endo-{[2-(2,4-dichlorophenoxy)-2-methylpropanoyl]amino}-8-azabicyclo[3.2.1]oct-8-yl)-N-(2,2-difluoroethyl)pyridine-3-carboxamide]",< 200 nM
12,"CC(C)(Oc1ccc(Cl)cc1Cl)C(=O)N[C@H]1C[C@H]2CC[C@@H](C1)N2c1ccc(C(=O)NC2CC2)cn1 [Example 31, N-cyclopropyl-6-[3-endo-({2-[(2,4-dichlorophenyl)oxy]-2-methylpropanoyl}amino)-8-azabicyclo[3.2.1]oct-8-yl]pyridine-3-carboxamide]",< 200 nM
13,"CC(C)(Oc1ccc(Cl)cc1)C(=O)N[C@H]1C[C@H]2CC[C@@H](C1)N2c1ccc(S(C)(=O)=O)cc1 [Example 203, 2-[(4-chlorophenyl)oxy]-2-methyl-N-{8-[4-(methylsulfonyl)phenyl]-8-azabicyclo[3.2.1]oct-3-endo-yl}propanamide]",< 2000 nM
14,"C[C@H](NC(=O)c1ccc(N2C3CCC2CC(NC(=O)C(C)(C)Oc2ccc(F)cc2Cl)C3)nc1)C(F)(F)F (stereo partly drawn) [Example 434, 6-(3-endo-{[2-(2-chloro-4-fluorophenoxy)-2-methylpropanoyl]amino}-8-azabicyclo[3.2.1]oct-8-yl)-N-[(2S)-1,1,1-trifluoropropan-2-yl]pyridine-3-carboxamide]",< 200 nM
15,"CC(C)(Oc1ccc(Cl)cc1C(F)(F)F)C(=O)N[C@H]1C[C@H]2CC[C@@H](C1)N2c1ccc(C(=O)NCC(F)(F)F)cn1 [Example 144, 6-{3-endo-[(2-{[4-chloro-2-(trifluoromethyl)phenyl]oxy}-2-methylpropanoyl)amino]-8-azabicyclo[3.2.1]oct-8-yl}-N-(2,2,2-trifluoroethyl)pyridine-3-carboxamide]",< 200 nM
16,"O=C(NC1CC1)c1ccc(N2C3CCC2CC(NC(=O)C2(c4ccc(Cl)cc4)CCCC2)C3)nc1 (centres unmarked) [Example 7, 6-[3-({[1-(4-chlorophenyl)cyclopentyl]carbonyl}amino)-8-azabicyclo[3.2.1]oct-8-yl]-N-cyclopropylpyridine-3-carboxamide]",< 200 nM
17,"CC(C)(Oc1ccc(Cl)cc1C(F)(F)F)C(=O)N[C@H]1C[C@H]2CC[C@@H](C1)N2c1ccc(S(C)(=O)=O)cn1 [Example 263, 2-{[4-chloro-2-(trifluoromethyl)phenyl]oxy}-2-methyl-N-{8-[5-(methylsulfonyl)pyridin-2-yl]-8-azabicyclo[3.2.1]oct-3-endo-yl}propanamide]",< 200 nM
18,"CC(C)(Oc1ccc(Cl)c(Cl)c1)C(=O)N[C@H]1C[C@H]2CC[C@@H](C1)N2c1ccc(C(=O)NCC(F)(F)F)cn1 [Example 83, 6-[3-endo-({2-[(3,4-dichlorophenyl)oxy]-2-methylpropanoyl}amino)-8-azabicyclo[3.2.1]oct-8-yl]-N-(2,2,2-trifluoroethyl)pyridine-3-carboxamide]",< 200 nM
19,"CC(C)(Oc1ncc(C(F)(F)F)cc1Cl)C(=O)N[C@H]1C[C@H]2CC[C@@H](C1)N2c1ccc(S(N)(=O)=O)cn1 [Example 246, N-{8-[5-(aminosulfonyl)pyridin-2-yl]-8-azabicyclo[3.2.1]oct-3-endo-yl}-2-{[3-chloro-5-(trifluoromethyl)pyridin-2-yl]oxy}-2-methylpropanamide]",< 2000 nM
20,"2-[(2,4-dichlorophenyl)oxy]-N-{8-[5-(1-hydroxy-1-methylethyl)pyridin-2-yl]-8-azabicyclo[3.2.1]oct-3-endo-yl}-2-methylpropanamide [Example 53]",< 2000 nM
21,"CC(C)(Oc1ccc(F)cc1Cl)C(=O)N[C@H]1C[C@H]2CC[C@@H](C1)N2c1ccc(C(N)=O)cn1 [Example 74, 6-[3-endo-({2-[(2-chloro-4-fluorophenyl)oxy]-2-methylpropanoyl}amino)-8-azabicyclo[3.2.1]oct-8-yl]pyridine-3-carboxamide]",< 200 nM
22,"CC(C)(Oc1ccc(F)cc1)C(=O)N[C@H]1C[C@H]2CC[C@@H](C1)N2c1ccc(S(C)(=O)=O)cn1 [Example 230, 2-[(4-fluorophenyl)oxy]-2-methyl-N-{8-[5-(methylsulfonyl)pyridin-2-yl]-8-azabicyclo[3.2.1]oct-3-endo-yl}propanamide]",< 2000 nM
23,CC(C)(Oc1ccc(Cl)c(C(F)(F)F)c1)C(=O)N[C@H]1C[C@H]2CC[C@@H](C1)N2c1ccc(C(N)=O)cn1 [Example 185],< 200 nM
24,"CC(C)(Oc1ncc(Cl)cc1F)C(=O)N[C@H]1C[C@H]2CC[C@@H](C1)N2c1ccc(C(=O)NCC(F)F)cn1 [Example 409, 6-(3-endo-(2-(5-chloro-3-fluoropyridin-2-yloxy)-2-methylpropanamido)-8-azabicyclo[3.2.1]octan-8-yl)-N-(2,2-difluoroethyl)nicotinamide]",< 200 nM
25,"CC(C)(Oc1cc(-c2ccccc2)ccc1Cl)C(=O)N[C@H]1C[C@H]2CC[C@@H](C1)N2c1ccc(C(N)=O)cn1 [Example 344, 6-[3-endo-({2-[(4-chlorobiphenyl-3-yl)oxy]-2-methylpropanoyl}amino)-8-azabicyclo[3.2.1]oct-8-yl]pyridine-3-carboxamide]",< 200 nM
26,"CC(C)(Oc1ccc(Cl)cc1Cl)C(=O)N[C@H]1C[C@H]2CC[C@@H](C1)N2c1ccc(C(=O)NCC(F)(F)F)cc1Cl [Example 117, 3-chloro-4-[3-endo-({2-[(2,4-dichlorophenyl)oxy]-2-methylpropanoyl}amino)-8-azabicyclo[3.2.1]oct-8-yl]-N-(2,2,2-trifluoroethyl)benzamide]",< 200 nM
27,"CC(C)(Oc1ccc(-c2ccccc2)cc1Cl)C(=O)N[C@H]1C[C@H]2CC[C@@H](C1)N2c1ccc(C(N)=O)cn1 [Example 266, 6-[3-endo-({2-[(3-chlorobiphenyl-4-yl)oxy]-2-methylpropanoyl}amino)-8-azabicyclo[3.2.1]oct-8-yl]pyridine-3-carboxamide]",< 200 nM
28,"CC(C)(Oc1ccc(Cl)cc1OCCn1ccnc1)C(=O)N[C@H]1C[C@H]2CC[C@@H](C1)N2c1ccc(C(=O)NCC(F)(F)F)cn1 [Example 387, 6-{3-endo-[(2-{4-chloro-2-[2-(1H-imidazol-1-yl)ethoxy]phenoxy}-2-methylpropanoyl)amino]-8-azabicyclo[3.2.1]oct-8-yl}-N-(2,2,2-trifluoroethyl)pyridine-3-carboxamide]",< 2000 nM
29,"CC(C)(Oc1ccccc1C(F)(F)F)C(=O)N[C@H]1C[C@H]2CC[C@@H](C1)N2c1ccc(C(N)=O)cn1 [Example 164, 6-{3-endo-[(2-methyl-2-{[2-(trifluoromethyl)phenyl]oxy}propanoyl)amino]-8-azabicyclo[3.2.1]oct-8-yl}pyridine-3-carboxamide]",< 200 nM
